The values below come from US20020142362A1, “Colorimetric assay system using thiopeptolide substrate for detection of membrane-type matrix metalloproteinase” (priority 2000, published 2002).

Numbered stars: 1 amine (or outer) side, 2 acyl side, 3 side chain; on linkers, the order of the positions; unused ones are H or OH. Bridge positions count the residues as written; N and C are the ends. Square brackets hold non-standard residues; d marks the D form. Peptide text beside a SMILES is read from it. I, II: the chains in the order shown. Actinocin(9to1) = Cc1c2oc3c(C)ccc(C(=O)[*:1])c3nc-2c(C(=O)[*:2])c(N)c1=O; NMeV = CN[C@H](C(=O)O)C(C)C; Sar = CNCC(=O)O

For series [1], the system named is MT-MMP. As to the kind of experiment: Thiopeptolide assay on cultured TM cells with protease inhibitors. In kind it is cell-based. The text has this:
Evidence has been presented by Mazzieri, et al., EMBO Journal 16: 2319-2332 (1997) that the urokinase-plasmin system may be in part responsible for activation of proGelatinase A in some cell systems. It was found in studying the subject thiopeptolide assay that a lesser fraction of the subject thiopeptolide assay activity could be inhibited by serine protease inhibitors, which are ineffective with MMP's. However, when these latter inhibitors were employed with TM cells stimulated by Con A, the percentage increase in thiopeptolide assay activity, compared to control cultures, was in fact augmented due to the Con A treatment.

For series [2], the system named is proGelatinase A. The note with it: cited from earlier work; for activation of Gelatinase A from the proenzyme form (zymography): HT-1080, in vitro incubation.
Series [3] has as its system MT-MMP. As to the kind of experiment: Thiopeptolide assay on cultured trabecular meshwork cells (digitonin-permeabilized). In kind it is cell-based, Rhesus monkey. The note with it: for thiopeptolide assay result versus control CACM: control cells (no Con A), 1 hour preincubation + 24 hours. Here is the method: (§1) The assay of the present invention may be made by first preparing the selected biological sample and assay buffer. To prepare the biological sample, the biological sample such as but not limited to cultured cells were placed in microtiter plates and incubated at approximately 37° C. for up to approximately 96 hours with serum-free, defined medium. A portion of the serum-free, defined medium contained test compounds, while another portion was maintained free of test compounds to serve as controls. In some cases, the biological sample was then processed as a permeabilized “ghost” as described in Example 1 below. The biological sample was then rinsed several times with cold isotonic balanced saline or Tris(hydroxymethyl)aminomethane (TRIS) buffer at pH 7.2 - 7.5. The saline or buffer was then replaced by filter-sterilized, isotonic assay buffer (295 mOsm) consisting of approximately 50 mmol/L N-[2-hydroxyethyl]piperazine-N′-[2-ethane sulfonic acid] (HEPES), approximately 106 mmol/L sodium chloride, approximately 3.5 mmol/L potassium chloride, approximately 5 mmol/L calcium chloride, and approximately 0.02% (v/v) polyoxyethylene 23 lauryl ether (Brij 35) or a similar detergent, final pH approximately 7.5, at approximately room temperature. The Brij 35 was added fresh, and the final mixture was protected from excessive light exposure. The volume of assay buffer for each biological sample was approximately one-half the final assay mixture volume, the other half being made up of the thiopeptolide substrate/thiol reagent solution. For example, when 96-well microtiter plates were employed, the assay mixture volume was approximately 200 microliters.
Next the thiopeptolide substrate/thiol reagent solution was prepared. Preferably, the synthetic thiopeptolide substrate acetyl-prolyl-leucyl-glycyl-[2-mercapto-4-methyl-pentanoyl]-leucyl-glycyl-ethyl ester (Bachem Bioscience, Inc., King of Prussia, Pa.) is used in the solution due to its ready availability. The synthetic thiopeptolide was stored as a 40X, 20 mmol/L stock in DMSO, sealed from light and air, and stored with desiccant at approximately −70° C.. The thiol reagent, 4,4-dithiodipyridine,5,5′-dithio bis(2-nitro-benzoic acid) (DTNB) or the like, but preferably DTNB, was prepared as a 100X, 50 mmol/L stock in DMSO, and stored protected from light with desiccant at approximately room temperature. The combined thiopeptolide and DTNB were both diluted to appropriately 1 mmol/L in assay buffer without Brij 35 to yield a solution that was 2X for both chemicals after thorough mixing. The assay reaction was started when this 2X solution was added in a 1:1 ratio, with thorough mixing, to the assay buffer in which the cells had been equilibrated. The final concentration of both thiopeptolide and DTNB were 0.5 mmol/L.
The assay reaction was then allowed to progress to a suitable endpoint beyond which no further color reaction proceeded, possibly due to product inhibition. This endpoint is usually reached after approximately two hours. During the two hours the samples were gently agitated in an approximately 37° C. humidified incubator. Once the endpoint was reached the microtiter plates were placed into a plate reader and optical density (OD) was measured at 410 nm. Blank values, the OD readings for samples without cells, used to assess non-enzymatic, non-specific hydrolysis of substrate, were then subtracted from all sample OD measurements. The OD measurements taken at 410 nm may be used as a measure of the amount of MT-MMP present on the samples. The effects of experimental conditions on the expression of MT-MMP may then be compared with that of the control samples.
Details of the signal transduction process initiated by Con A culminating in proGelatinase A activation by MT-MMP remained to be elucidated. […]

The test system of series [4] is MT-MMP. As to the kind of experiment: Thiopeptolide assay on excised trabecular meshwork from human anterior segment organ culture. In kind it is cell-based. Here is the method:
as §1
Next the thiopeptolide substrate/thiol reagent solution was prepared. Preferably, the synthetic thiopeptolide substrate acetyl-prolyl-leucyl-glycyl-[2-mercapto-4-methyl-pentanoyl]-leucyl-glycyl-ethyl ester (Bachem Bioscience, Inc., King of Prussia, Pa.) is used in the solution due to its ready availability. The synthetic thiopeptolide was stored as a 40X, 20 mmol/L stock in DMSO, sealed from light and air, and stored with desiccant at approximately −70° C.. […]
The assay reaction was then allowed to progress to a suitable endpoint beyond which no further color reaction proceeded, possibly due to product inhibition. […] Once the endpoint was reached the microtiter plates were placed into a plate reader and optical density (OD) was measured at 410 nm. Blank values, the OD readings for samples without cells, used to assess non-enzymatic, non-specific hydrolysis of substrate, were then subtracted from all sample OD measurements. […]

Series [5] concerns MT1-MMP. Put plainly: Thiopeptolide assay on HT-1080 cells. It is filed as cell-based, Human. The text has this:
The activation of proGelatinase A was shown in the noted Lohi and Stanton work to be inhibitable by tissue inhibitor of [matrix] metalloproteinases-2 (TIMP-2), and by a synthetic hydroxamate inhibitor of MMP's, but not by metalloproteinases-1 (TIMP-1). As additional evidence that the subject assay detects MT1-MMP in human and non-human primate TM cells, the zymographic results of the Lohi and Stanton work were reproduced using the subject assay, using the same methodology as described herein for TM cells, with […] and […].

The test system of series [6] is proGelatinase A. Put plainly: Zymography of conditioned medium from cultured TM cells. In kind it is cell-based.
Series [7] deals with MT1-MMP. The following applies: HT-1080, in vitro incubation; cited from earlier work.
[8] abbreviates: Con A-treated cells (10 ug/ml), inhibitor 1 hour preincubation, then Con A plus inhibitor 24 hours, Act D 500 ng/ml, CHX 20 ug/ml.

For “TIMP-1: metalloproteinases-1 (TIMP-1), tissue inhibitor of metalloproteinases”, the “inhibition of activity increases in thiopeptolide assay” value with MT-MMP [1] is “not”. For the same molecule, the “inhibition of activation of proGelatinase A” value in the series on proGelatinase A [2] (HT-1080, Lohi and Stanton work) is “not”.

For the molecule `Cc1c2oc3c(C)ccc(C(=O)N[C@@H]4C(=O)N[C@H](C(C)C)C(=O)N5CCC[C@H]5C(=O)N(C)CC(=O)N(C)[C@@H](C(C)C)C(=O)O[C@@H]4C)c3nc-2c(C(=O)N[C@@H]2C(=O)N[C@H](C(C)C)C(=O)N3CCC[C@H]3C(=O)N(C)CC(=O)N(C)[C@@H](C(C)C)C(=O)O[C@@H]2C)c(N)c1=O` [Act D, actinomycin D] (I: T[dV]P[Sar][NMeV] / II: T[dV]P[Sar][NMeV]; ester I:1-I:C, II:1-II:C; linker I:N-II:N via Actinocin(9to1)), the “MT-MMP activity in thiopeptolide assay versus control CACM” value in the series with MT-MMP [3] (Con A for 6 hrs, then Con A plus Act D for 18 hours) is “slightly, but discernibly, higher than control”; in the series with MT-MMP [3] (setting [8]), “slightly, but discernibly, higher than control”. Moreover, the “thiopeptolide assay result versus control CACM” value in the series on MT-MMP [3] (Act D 500 ng/ml, CHX 20 ug/ml) is given as “not significantly different from control CACM alone”.

For Concanavalin A [Con A], the “MT-MMP expression over control levels (OD 410 nm, thiopeptolide assay)” value with MT-MMP [3] (Con A 10 ug/ml in CACM, 24 hours, vs control CACM) is recorded as “more than 200%”. Moreover, the “OD readings over control” value is listed as 200% with MT-MMP [4] (100 ug/ml Con A) and “approximately 100%” with MT-MMP [4] (30 - 80 ug/ml Con A). The “thiopeptolide assay result versus control medium” value in the series with MT-MMP [4] (Con A below 30 ug/ml) was “indistinguishable from simply incubating anterior segment quadrants in control medium”. For the same molecule, the “threshold Con A concentration for MT-MMP expression in intact TM” value with MT-MMP [4] (human anterior segment quadrants, 24 + 18 hour incubation) was 30 µg/mL. Besides, the “activity in thiopeptolide assay following treatment” value in the series with MT1-MMP [5] is given as “Increased activity”. In addition, in the series on proGelatinase A [6], the “activation of proGelatinase A (zymography)” value is reported as “robust activation”. Besides, the “activation of Gelatinase A from the proenzyme form (zymography)” value with proGelatinase A [2] is listed as “activate”. The “expression of MT1-MMP (Western immunoblot)” value in the series with MT1-MMP [7] is listed as “increase expression”.

As to `CCCCCCCCCCCCCC(=O)O[C@@H]1[C@@H](C)[C@@]2(O)[C@@H](C=C(CO)C[C@]3(O)C(=O)C(C)=C[C@@H]23)[C@@H]2C(C)(C)[C@]12OC(C)=O` [PMA, phorbol 12-myristate 13-acetate], the “activity in thiopeptolide assay following treatment” value in the series with MT1-MMP [5] is given as “Increased activity”. Moreover, the “activation of Gelatinase A from the proenzyme form (zymography)” value with proGelatinase A [2] is listed as “activate”. Moreover, in the series with MT1-MMP [7], the “expression of MT1-MMP (Western immunoblot)” value is recorded as “increase expression”.

For the molecule `C[C@@H]1C[C@@H]([C@H](O)CC2CC(=O)NC(=O)C2)C(=O)[C@@H](C)C1` [CHX, cycloheximide], in the series on MT-MMP [3] (setting [8]), the “MT-MMP activity in thiopeptolide assay versus control CACM” value is reported as “not significantly different from control CACM alone”. In addition, the “thiopeptolide assay result versus control CACM” value in the series with MT-MMP [3] (Act D 500 ng/ml, CHX 20 ug/ml) is reported as “not significantly different from control CACM alone”.
